How the values were obtained:
Male Fisher 344 rats [1] = assay: Plasma free plus esterified 8-iso-PGF2α by GC/MS; type: in vivo, rat; conditions: for Free plus esterified 8-iso-PGF2a (by GC-MS): plasma
Method: (§1) Animals and treatment protocol: Male Fisher 344 rats (260-280 g) obtained from Charles River Laboratories (Raleigh, N.C.) were used in all experiments. The animals were housed three to a cage. Autoclaved hardwood bedding was used in solid-bottom polycarbonate cages with filter tops. Animal rooms were maintained at 20-25° C. with 35-70% relative humidity with alternating 12-hour light and dark cycles. The rats had free access to deionized, reverse-osmosis-treated water and received autoclaved NIH 31 rodent chow (Zeigler Bros., Gardners, Pa.) ad libitum. For all experiments, rats were fasted overnight and then administered intraperitoneal injections of carbon tetrachloride in canola oil. Control rats received an equal volume of canola oil. Fasting continued throughout the experiment. Rats were anesthetized with Nembutal (0.1 ml/100 g body weight) and 5 ml blood was removed from the dorsal aorta proximal to its bifurcation into the common iliac arteries.
(§2) Indomethacin pretreatment: The indomethacin regimen used has been previously shown to inhibit COX activity in rats by 90% (dose of 5 mg/kg s.c. 24 hours, 12 hours, and 2 hours prior to the injection of CCl4) (Jackson, 1989, J. Pharmacol. Exp. Ther. 250: 9-21). An additional booster dose was injected 8 hours after the last injection of CCl4 for the measurements performed 16 hours after treatment with CCl4.
(§3) Meclofenamic acid pretreatment: Meclofenamic acid was injected at a dose of 5 mg/kg i.p. 12 h and 2 h prior to the injection of CCl4.
(§4) Carbon tetrachloride (CCL4) treatment: Animals from each of the three dose groups (Control-canola oil, 120 mg/kg CCl4 i.p. and 1200 mg/kg CCl4 i.p.) were investigated at three time points (2, 7, and 16 hours after CCl4 injection). Indomethacin-pretreated rats were also investigated at the same three time points, and the meclofenamic acid-pretreated rats were investigated at one time point (7 hours). Each group consisted of five rats for each analysis, except the meclofenamic acid pretreatment group which consisted of six rats. Animal treatment, sample preparation, assessment of liver histology and serum enzyme activities are described elsewhere (Kadiiska et al., 2000, Free Radic. Biol. Med. 28: 838-845; Jackson, 1989, J. Pharmacol. Exp. Ther. 250: 9-21) and were carried out at NIEHS, Research Triangle Park, N.C.
(§5) Plasma sample preparation: Blood (5 ml) was drawn through single draw Vacutainer® needles (21 Gauge) into open Vacutainer® blood collection tubes containing heparin. The tubes were gently inverted 2-3 times for mixing and immediately placed on ice. Blood was centrifuged (2,000 rpm for 10 minutes at 4° C.) no more than 30 minutes after collection, and the plasma was collected, frozen on dry ice and stored at −70° C.
Measurement of the sum of free plus esterified 8-iso-PGF2α in plasma were performed using an improved GC/MS-based analysis for the quantitation of this isoprostane in plasma. A detailed protocol for this extraction and quantitation has been published (Parker et al., 2001, Mol. Biotechnol. 18: 105-118). Measurements of the sum of free plus esterified 8-iso-PGF2α in plasma were performed at NIEHS, Research Triangle Park, N.C.

Male Fisher 344 rats [2] = assay: Plasma methionine sulfoxidation; type: in vivo, rat
Method: as §1, §4, §5
Methionine sulfoxidation was measured according to Levine et al. (1996, Proc. Natl. Acad. Sci. USA 93: 15036-15040). In brief, serum samples were hydrolyzed with HCl. The methionine sulfoxide residue was converted to methionine, which represents the methionine sulfoxide level in the protein. The samples were analyzed on a Beckman Model 7300 amino acid analyzer. The methionine concentrations were measured at Weill Medical College of Cornell University, New York, N.Y., USA.

Male Fisher 344 rats [3] = assay: Urinary free 8-iso-PGF2α by radioimmunoassay; type: in vivo, rat; conditions: both doses of CCl4, 7 h
Method: as §1, §3
as §4, with “N.C. […]” for “N.C.”
In Experimental Example 2, urine samples were also analyzed for free 8-iso-PGF2α, without any extraction, by radioimmunoassay (Basu, 1998, Prost. Leuk. Ess. Fatty Acids. 58: 319-325). […]

Male Fisher 344 rats [4] = assay: Urinary 8,12-iso-iPF2α-VI by LC/MS/MS; type: in vivo, rat; conditions: for 8,12-iso-iPF2a-VI (by LC/MS/MS): urine
Method: as §1, §2, §3, §4
Urine sample preparation: The day prior to treatment, both experimental and control animals were placed in stainless steel metabolic cages especially designed for urine collection. For Experimental Example 2, animals were placed in metabolic cages immediately after the last injection of indomethacin or meclofenamic acid. Urine was collected (in dark vials) from the animals during the following intervals: 2 to 7 hours and 7 to 16 hours after CCl4 or canola oil (controls) treatment. Urine samples from indomethacin-pretreated rats were collected from 2 to 7 hours and 7 to 16 hours after the injection of CCl4, whereas samples from meclofenamic-acid-pretreated rats were collected only from 2 to 7 hours after the injection. All urine samples were immediately frozen on dry ice and stored at −70° C.
Analysis of 8,12-iso-iPF2α-VI, which is, along with its epimer 5-epi-8,12-iso-iPF2α-VI, the most prevalent PGF-ring isoprostane in human urine, was accomplished by addition of a tetradeuterated analog, solid phase extraction and quantitation using liquid chromatography and tandem mass spectroscopy (LC/MS/MS) (Li et al., 1999, Proc. Natl. Acad. Sci. USA 96: 13381-13386). The measurements were performed at the University of Pennsylvania, Philadelphia, Pa.

Male Fisher 344 rats [5] = conditions: cited from earlier work

## ClC(Cl)(Cl)Cl [CCl4, Carbon tetrachloride]
Male Fisher 344 rats [1]; CCl4 120 mg/kg i.p., 2 h
  Free plus esterified 8-iso-PGF2a (by GC-MS): 3.07 ng/mL
Male Fisher 344 rats [1]; CCl4 120 mg/kg i.p., 7 h
  Free plus esterified 8-iso-PGF2a (by GC-MS): 1.79 ng/mL
Male Fisher 344 rats [1]; CCl4 120 mg/kg i.p., 16 h
  Free plus esterified 8-iso-PGF2a (by GC-MS): 0.93 ng/mL
Male Fisher 344 rats [1]; CCl4 1200 mg/kg i.p., 2 h
  Free plus esterified 8-iso-PGF2a (by GC-MS): 6.63 ng/mL
Male Fisher 344 rats [1]; CCl4 1200 mg/kg i.p., 7 h
  Free plus esterified 8-iso-PGF2a (by GC-MS): 4.39 ng/mL
Male Fisher 344 rats [1]; CCl4 1200 mg/kg i.p., 16 h
  Free plus esterified 8-iso-PGF2a (by GC-MS): 1.68 ng/mL
Male Fisher 344 rats [1]; high dose CCl4, 2 h
  increase of free plus esterified plasma 8-iso-PGF2α: 15 fold
Male Fisher 344 rats [1]; high dose CCl4, 7 h
  increase of free plus esterified plasma 8-iso-PGF2α: 10 fold
Male Fisher 344 rats [1]; high dose CCl4, 16 h
  increase of free plus esterified plasma 8-iso-PGF2α: 4 fold
Male Fisher 344 rats [2]; CCl4 120 mg/kg i.p., 2 h
  Methionine sulfoxide: 2.3 % of total methionine
Male Fisher 344 rats [2]; CCl4 120 mg/kg i.p., 7 h
  Methionine sulfoxide: 1.7 % of total methionine
Male Fisher 344 rats [2]; CCl4 120 mg/kg i.p., 16 h
  Methionine sulfoxide: 3.1 % of total methionine
Male Fisher 344 rats [2]; CCl4 1200 mg/kg i.p., 2 h
  Methionine sulfoxide: 1.8 % of total methionine
Male Fisher 344 rats [2]; CCl4 1200 mg/kg i.p., 7 h
  Methionine sulfoxide: 1.1 % of total methionine
Male Fisher 344 rats [2]; CCl4 1200 mg/kg i.p., 16 h
  Methionine sulfoxide: 1.7 % of total methionine
Male Fisher 344 rats [3]
  urinary free 8-iso-PGF2α (radioimmunoassay): dose-dependent increase
Male Fisher 344 rats [4]; CCl4 120 mg/kg i.p., 7 h
  8,12-iso-iPF2a-VI (by LC/MS/MS): 36.8 ng/mL
Male Fisher 344 rats [4]; CCl4 120 mg/kg i.p., 16 h
  8,12-iso-iPF2a-VI (by LC/MS/MS): 32.4 ng/mL
Male Fisher 344 rats [4]; CCl4 1200 mg/kg i.p., 7 h
  8,12-iso-iPF2a-VI (by LC/MS/MS): 84.3 ng/mL
Male Fisher 344 rats [4]; CCl4 1200 mg/kg i.p., 16 h
  8,12-iso-iPF2a-VI (by LC/MS/MS): 78.5 ng/mL
Male Fisher 344 rats [4]; high dose CCl4, 7 h
  increase of urinary 8,12-iso-iPF2α-VI: 17 fold
Male Fisher 344 rats [4]; high dose CCl4, 16 h
  increase of urinary 8,12-iso-iPF2α-VI: 7 fold
Male Fisher 344 rats [5]; CCl4 120 and 1200 mg/kg, 2, 7, 16 h
  serum liver enzyme activities: significant increase in many of the enzyme activities studied was observed at the high dose at 2 hours and for both doses at 7 and 16 hours
Male Fisher 344 rats [5]; both doses of CCl4, each time point
  hepatic effects, histology: diffuse hepatocyte degeneration and infiltration of inflammatory cells associated with necrosis

From patent US7833795B2, “Assessment of cardiovascular risk using isoprostane biomarkers and COX-2 selective inhibitors” (The Trustees of the University of Pennsylvania, priority 2004, dated 2010)
